What was measured:
[1] = tested on: IFNα-stimulated STAT-dependent luciferase reporter in Kit225 T cells; assay: Kit225 T cell assay, IFNα stimulated STAT-dependent luciferase reporter; assay type: cell-based, human; conditions: Kit225 T cells, 200 U/mL human recombinant IFNα, 5-6 hours, luciferase; read-out: IFNα (Kit225 T Cell Inhibition Data)
Experimental: (§1) Kit225 T cells with a stably-integrated STAT-dependent luciferase reporter were plated in RPMI (Gibco) containing 10% heat-inactivated FBS (Gibco) and 100 U/mL PenStrep (Gibco). The cells were then stimulated with either 20 ng/mL human recombinant IL-23 or 200 U/mL human recombinant IFNα (PBL InterferonSource) for 5-6 hours. Luciferase expression was measured using the STEADY-GLO® Luciferase Assay System (Promega) according to the manufacturer's instructions.

[2] = tested on: IL-23-stimulated STAT-dependent luciferase reporter in Kit225 T cells; assay: Kit225 T cell assay, IL-23 stimulated STAT-dependent luciferase reporter; assay type: cell-based, human; conditions: Kit225 T cells, 20 ng/mL human recombinant IL-23, 5-6 hours, luciferase; read-out: IL23 (Kit225 T Cell Inhibition Data)
Experimental: as §1

Compound `CNC(=O)c1cnc(Nc2ccc(F)cn2)cc1Nc1ccccc1S(C)(=O)=O` [Example 1] has an IC50 [1] of 70 nM and an IC50 [2] of 98.5 nM.
`CNC(=O)c1cnc(Nc2ccccn2)cc1Nc1ccccc1S(C)(=O)=O` [Example 3] showed an IC50 [1] of 70 nM and an IC50 [2] of 61.4 nM.
In the case of `CNC(=O)c1cnc(Nc2cc(C)ccn2)cc1Nc1ccccc1S(C)(=O)=O` [Example 4], the IC50 [1] is reported as 30 nM and the IC50 [2] is reported as 36 nM.
`CNC(=O)c1cnc(Nc2cc(C#N)ccn2)cc1Nc1ccccc1S(C)(=O)=O` [Example 5] showed an IC50 [1] of 50 nM and an IC50 [2] of 82.2 nM.
With `CNC(=O)c1cnc(Nc2ccc(F)cn2)cc1Nc1ccc(OC)cc1S(C)(=O)=O` [Example 6] the IC50 [1] was 110 nM and the IC50 [2] was 91 nM.
In the case of `CNC(=O)c1cnc(Nc2ccc(N3CCOCC3)cn2)cc1Nc1ccc(OC)cc1S(C)(=O)=O` [Example 7], the IC50 [1] is reported as 100 nM and the IC50 [2] is reported as 154 nM.
`CNC(=O)c1cnc(Nc2ccccn2)cc1Nc1ccc(OC)cc1S(C)(=O)=O` [Example 8] gave an IC50 [1] of 60 nM and an IC50 [2] of 143 nM.
Work on `CNC(=O)c1cnc(Nc2ccc(N3CCOCC3)cn2)cc1Nc1ccccc1S(C)(=O)=O` [Example 9] yielded an IC50 [1] of 40 nM and an IC50 [2] of 97.8 nM.
With `CNC(=O)c1cnc(Nc2ccccn2)cc1Nc1ccc(F)cc1S(C)(=O)=O` [Example 10] the IC50 [1] was 120 nM and the IC50 [2] was 218 nM.
Work on `CNC(=O)c1cnc(Nc2ccc(F)cn2)cc1Nc1ccc(Cl)cc1S(C)(=O)=O` [Example 11] yielded an IC50 [1] of 60 nM and an IC50 [2] of 161 nM.
With `CNC(=O)c1cnc(Nc2ccccn2)cc1Nc1ccc(Cl)cc1S(C)(=O)=O` [Example 12] the IC50 [1] was 50 nM and the IC50 [2] was 109 nM.
Work on `CNC(=O)c1cnc(Nc2ccc(F)cn2)cc1Nc1ccc(F)cc1S(C)(=O)=O` [Example 13] yielded an IC50 [1] of 120 nM and an IC50 [2] of 257 nM.
With `CNC(=O)c1cnc(Nc2cc(C(F)(F)F)ccn2)cc1Nc1ccccc1S(C)(=O)=O` [Example 14] the IC50 [1] was 110 nM and the IC50 [2] was 135 nM.
With `CNC(=O)c1cnc(Nc2cc(OC)ccn2)cc1Nc1ccccc1S(C)(=O)=O` [Example 15] the IC50 [1] was 80 nM and the IC50 [2] was 108 nM.
With `CNC(=O)c1cnc(Nc2cccc(C(F)(F)F)n2)cc1Nc1ccccc1S(C)(=O)=O` [Example 16] the IC50 [1] was 100 nM and the IC50 [2] was 180 nM.
For `CNC(=O)c1cnc(Nc2ccc(Cl)cn2)cc1Nc1ccccc1S(C)(=O)=O` [Example 17], the IC50 [1] was 100 nM and the IC50 [2] was 104 nM.
Work on `CNC(=O)c1cnc(Nc2cc(C(C)(C)C)ccn2)cc1Nc1ccccc1S(C)(=O)=O` [Example 18] yielded an IC50 [1] of 400 nM and an IC50 [2] of 1120 nM.
Work on `CNC(=O)c1cnc(Nc2cc(S(=O)(=O)N(C)C)ccn2)cc1Nc1ccccc1S(C)(=O)=O` [Example 19] yielded an IC50 [1] of 430 nM and an IC50 [2] of 749 nM.
Work on `CNC(=O)c1cnc(Nc2cccc(F)n2)cc1Nc1ccccc1S(C)(=O)=O` [Example 20] yielded an IC50 [1] of 40 nM and an IC50 [2] of 50.7 nM.
`CNC(=O)c1cnc(Nc2cccc(C)n2)cc1Nc1ccccc1S(C)(=O)=O` [Example 21] was tested, and the IC50 [1] was 30 nM and the IC50 [2] was 50.9 nM.
`CNC(=O)c1cnc(Nc2ccc(C)cn2)cc1Nc1ccccc1S(C)(=O)=O` [Example 22] was tested, and the IC50 [1] was 50 nM and the IC50 [2] was 64.9 nM.
Work on `CNC(=O)c1cnc(Nc2cc(F)ccn2)cc1Nc1ccccc1S(C)(=O)=O` [Example 23] yielded an IC50 [1] of 90 nM and an IC50 [2] of 115 nM.
Compound `CNC(=O)c1cnc(Nc2cccc(OC)n2)cc1Nc1ccccc1S(C)(=O)=O` [Example 24] has an IC50 [1] of 40 nM and an IC50 [2] of 35.2 nM.
For `CNC(=O)c1cnc(Nc2cc3ccccc3cn2)cc1Nc1ccccc1S(C)(=O)=O` [Example 25], the IC50 [1] was 110 nM and the IC50 [2] was 87.7 nM.
In the case of `CNC(=O)c1cnc(Nc2cc(C(C)=O)ccn2)cc1Nc1ccccc1S(C)(=O)=O` [Example 26], the IC50 [1] is reported as 670 nM and the IC50 [2] is reported as 1060 nM.
With `CNC(=O)c1cnc(Nc2cccc(C#N)n2)cc1Nc1ccccc1S(C)(=O)=O` [Example 27] the IC50 [1] was 180 nM and the IC50 [2] was 376 nM.
For `CNC(=O)c1cnc(Nc2ccc(F)cn2)cc1Nc1ccccc1S(=O)(=O)C(F)(F)F` [Example 28], the IC50 [1] was 9570 nM.
`CNC(=O)c1cnc(Nc2ccccn2)cc1Nc1ccccc1S(=O)(=O)C(F)(F)F` [Example 29] showed an IC50 [1] of 7980 nM and an IC50 [2] of 7110 nM.
With `CNC(=O)c1cnc(Nc2cc(C#N)ccn2)cc1Nc1ccccc1S(C)(=O)=O` [Example 30] the IC50 [1] was 580 nM and the IC50 [2] was 753 nM.
In the case of `CCS(=O)(=O)c1ccccc1Nc1cc(Nc2ccccn2)ncc1C(=O)NC` [Example 31], the IC50 [1] is reported as 1230 nM and the IC50 [2] is reported as 1860 nM.
Compound `CCS(=O)(=O)c1ccccc1Nc1cc(Nc2ccc(F)cn2)ncc1C(=O)NC` [Example 32] has an IC50 [1] of 1080 nM and an IC50 [2] of 2200 nM.
Compound `CCS(=O)(=O)c1ccccc1Nc1cc(Nc2cc(C#N)ccn2)ncc1C(=O)NC` [Example 33] has an IC50 [1] of 660 nM and an IC50 [2] of 612 nM.
With `CNC(=O)c1cnc(Nc2cc(C#N)ccn2)cc1Nc1ccc(F)cc1S(C)(=O)=O` [Example 34] the IC50 [1] was 160 nM and the IC50 [2] was 114 nM.
Compound `CNC(=O)c1cnc(Nc2cc(C#N)ccn2)cc1Nc1cccc(S(C)(=O)=O)c1F` [Example 35] has an IC50 [2] of 4430 nM.
`CNC(=O)c1cnc(Nc2cccnn2)cc1Nc1ccccc1S(C)(=O)=O` [Example 36] showed an IC50 [1] of 700 nM and an IC50 [2] of 1310 nM.
For `CNC(=O)c1cnc(Nc2ccncn2)cc1Nc1ccccc1S(C)(=O)=O` [Example 37], the IC50 [1] was 1150 nM and the IC50 [2] was 690 nM.
`CNC(=O)c1cnc(Nc2cnccn2)cc1Nc1ccccc1S(C)(=O)=O` [Example 38] gave an IC50 [1] of 370 nM and an IC50 [2] of 550 nM.
`CNC(=O)c1cnc(Nc2cnccn2)cc1Nc1ccc(F)cc1S(C)(=O)=O` [Example 39] gave an IC50 [1] of 1540 nM and an IC50 [2] of 1480 nM.
In the case of `CNC(=O)c1cnc(Nc2cnc(C)cn2)cc1Nc1ccccc1S(C)(=O)=O` [Example 40], the IC50 [1] is reported as 130 nM and the IC50 [2] is reported as 130 nM.
In the case of `CNC(=O)c1cnc(Nc2cnc(C#N)cn2)cc1Nc1ccccc1S(C)(=O)=O` [Example 41], the IC50 [1] is reported as 1910 nM and the IC50 [2] is reported as 6120 nM.
With `CNC(=O)c1cnc(Nc2ccc(F)cn2)cc1Nc1ccc(S(C)(=O)=O)cc1OC` [Example 44] the IC50 [1] was 1460 nM and the IC50 [2] was 1240 nM.
`CNC(=O)c1cnc(Nc2ccccn2)cc1Nc1ccc(S(C)(=O)=O)cc1OC` [Example 45] was tested, and the IC50 [1] was 1250 nM and the IC50 [2] was 4260 nM.
Work on `CNC(=O)c1cnc(Nc2ccccn2)cc1Nc1cccc(F)c1S(C)(=O)=O` [Example 46] yielded an IC50 [1] of 1390 nM and an IC50 [2] of 2980 nM.
In the case of `CNC(=O)c1cnc(Nc2ccc(F)cn2)cc1Nc1cccc(F)c1S(C)(=O)=O` [Example 47], the IC50 [1] is reported as 1680 nM and the IC50 [2] is reported as 2410 nM.
`CNC(=O)c1cnc(Nc2cc(C#N)ccn2)cc1Nc1cccc(F)c1S(C)(=O)=O` [Example 48] was tested, and the IC50 [1] was 960 nM and the IC50 [2] was 1610 nM.
`CNC(=O)c1cnc(Nc2cc(C)ccn2)cc1Nc1cccc(F)c1S(C)(=O)=O` [Example 49] gave an IC50 [1] of 540 nM and an IC50 [2] of 410 nM.
Work on `CNC(=O)c1cnc(Nc2cc(F)ccn2)cc1Nc1cccc(F)c1S(C)(=O)=O` [Example 50] yielded an IC50 [1] of 2000 nM and an IC50 [2] of 1540 nM.
`CNC(=O)c1cnc(Nc2cc(F)ccn2)cc1Nc1ccc(F)cc1S(C)(=O)=O` [Example 51] showed an IC50 [1] of 200 nM and an IC50 [2] of 270 nM.
Compound `CNC(=O)c1cnc(Nc2cc(C)ccn2)cc1Nc1ccc(F)cc1S(C)(=O)=O` [Example 52] has an IC50 [1] of 90 nM and an IC50 [2] of 200 nM.
`CNC(=O)c1cnc(Nc2ccccn2)cc1Nc1cc(F)ccc1S(C)(=O)=O` [Example 53] showed an IC50 [1] of 80 nM and an IC50 [2] of 90 nM.
With `CNC(=O)c1cnc(Nc2cccc(F)n2)cc1Nc1cc(F)ccc1S(C)(=O)=O` [Example 54] the IC50 [1] was 160 nM and the IC50 [2] was 190 nM.
In the case of `CNC(=O)c1cnc(Nc2ccc(F)cn2)cc1Nc1cc(F)ccc1S(C)(=O)=O` [Example 55], the IC50 [1] is reported as 170 nM and the IC50 [2] is reported as 130 nM.
With `CNC(=O)c1cnc(Nc2cc(C)ccn2)cc1Nc1cc(F)ccc1S(C)(=O)=O` [Example 56] the IC50 [1] was 50 nM and the IC50 [2] was 120 nM.
With `CNC(=O)c1cnc(Nc2cc(F)ccn2)cc1Nc1cc(F)ccc1S(C)(=O)=O` [Example 57] the IC50 [1] was 190 nM and the IC50 [2] was 160 nM.
`CNC(=O)c1cnc(Nc2cc(C#N)ccn2)cc1Nc1cc(F)ccc1S(C)(=O)=O` [Example 58] was tested, and the IC50 [1] was 140 nM and the IC50 [2] was 220 nM.
`CNC(=O)c1cnc(Nc2ccc(C(F)(F)F)cn2)cc1Nc1ccccc1S(C)(=O)=O` [Example 59] was tested, and the IC50 [1] was 120 nM and the IC50 [2] was 370 nM.
`CNC(=O)c1cnc(Nc2cc(C)c(F)cn2)cc1Nc1ccccc1S(C)(=O)=O` [Example 60] was tested, and the IC50 [1] was 40 nM and the IC50 [2] was 60 nM.
`CNC(=O)c1cnc(Nc2ccc(F)cn2)cc1Nc1ccccc1C(N)=O` [Example 63] gave an IC50 [1] of 410 nM and an IC50 [2] of 774 nM.
`CNC(=O)c1cnc(Nc2ccc(F)cn2)cc1Nc1cc(F)ccc1F` [Example 64] gave an IC50 [1] of 9030 nM and an IC50 [2] of 5950 nM.
`CNC(=O)c1cnc(Nc2ccc(F)cn2)cc1Nc1ccccc1SC` [Example 65] showed an IC50 [1] of 370 nM and an IC50 [2] of 481 nM.
Compound `CNC(=O)c1cnc(Nc2ccc(C(N)=O)cn2)cc1Nc1ccccc1C(N)=O` [Example 93] has an IC50 [2] of 466 nM.
`CNC(=O)c1cnc(Nc2cc(C#N)ccn2)cc1Nc1cccc(C)c1C(N)=O` [Example 177] showed an IC50 [2] of 388 nM.
With `CNC(=O)c1cnc(Nc2ccc(C(F)(F)F)cn2)cc1Nc1ccccc1C(C)(C)O` [Example 181] the IC50 [2] was 6170 nM.
With `CNC(=O)c1cnc(Nc2cccnn2)cc1Nc1ccccc1C(C)(C)O` [Example 182] the IC50 [2] was 8850 nM.
With `CNC(=O)c1cnc(Nc2ccc(F)cn2)cc1Nc1ccc(F)cc1C` [Example 189] the IC50 [1] was 9370 nM.
`CNC(=O)c1cnc(Nc2ccc(F)cn2)cc1Nc1cccc(OC)c1` [Example 202] gave an IC50 [1] of 6560 nM.
`CNC(=O)c1cnc(Nc2ccc(F)cn2)cc1Nc1cc2ccccc2cc1C(N)=O` [Example 253] gave an IC50 [1] of 440 nM.
Work on `CNC(=O)c1cnc(Nc2cc(S(C)(=O)=O)ccn2)cc1Nc1cccc(F)c1OC` [Example 282] yielded an IC50 [2] of 511 nM.
